Reference: patent publication US10206394B2, “Herbicidal compounds” (Syngenta Participations AG, priority 2014, dated 2019)
Read-outs that look alike come from different tables or passages of the source.

Legend:
Assay in all cases: Glasshouse assay for herbicidal activity (pre- and post-emergence), percentage phytotoxicity
Assay type in all cases: in vivo
[1] = test system: Echinochloa crus-galli (ECHCG); conditions: Echinochloa crus-galli, Rate 250 g/ha, 100%=total damage, 0%=no damage
Experimental: (§1) Test—Glasshouse Assay for Herbicidal Activity
(§2) Seeds of a variety of monocotyledonous and dicotyledonous test plants are sown in standard soil in pots. The plants are cultivated for one day (for pre-emergence (PRE)) or for about 12 days (for post-emergence (POST)) under controlled conditions in a glasshouse (warm climate species at 24/18° C., cool climate species at 20/16° C., both at day/night; 16 hours light; 65% humidity).
(§3) The test plants are then grown on, in a glasshouse (greenhouse) under controlled conditions (warm climate species at 24/18° C., cool climate species at 20/16° C., both at day/night; 16 hours light; 65% humidity) and are watered twice daily. 15 days after application of the test herbicide (15 DAA) (for post-emergence), and 20 days after application of the test herbicide (20 DAA) (for pre-emergence), the test plants are evaluated visually, and an assessed percentage phytotoxicity score is given for each herbicidal application on each plant species (with 100%=total damage to plant; 0%=no damage to plant).
(§4) The plant species tested are as follows: Alopecurus myosuroides (ALOMY), Avena fatua (AVEFA), Lolium perenne (LOLPE), Echinochloa crus-galli (ECHCG).

Lolium perenne (LOLPE) = conditions: Lolium perenne, Rate 250 g/ha, 100%=total damage, 0%=no damage
Experimental: as §1, §2, §3, §4

Avena fatua (AVEFA) = conditions: Avena fatua, Rate 250 g/ha, 100%=total damage, 0%=no damage
Experimental: as §1, §2, §3, §4

[2] = test system: Alopecurus myosuroides (ALOMY); conditions: Alopecurus myosuroides, Rate 250 g/ha, 100%=total damage, 0%=no damage
Experimental: as §1, §2, §3, §4

[3] = post-emergence, 360 h, post-emergence, assessed visually 15 DAA, read-out: Post-emergence herbicidal activity (percentage phytotoxicity) ECHCG POST
[4] = pre-emergence, 480 h, pre-emergence, assessed visually 20 DAA, read-out: Pre-emergence herbicidal activity (percentage phytotoxicity) ECHCG PRE
[5] = post-emergence, 360 h, post-emergence, assessed visually 15 DAA, read-out: Post-emergence herbicidal activity (percentage phytotoxicity) LOLPE POST
[6] = pre-emergence, 480 h, pre-emergence, assessed visually 20 DAA, read-out: Pre-emergence herbicidal activity (percentage phytotoxicity) LOLPE PRE
[7] = post-emergence, 360 h, post-emergence, assessed visually 15 DAA, read-out: Post-emergence herbicidal activity (percentage phytotoxicity) AVEFA POST
[8] = pre-emergence, 480 h, pre-emergence, assessed visually 20 DAA, read-out: Pre-emergence herbicidal activity (percentage phytotoxicity) AVEFA PRE
[9] = post-emergence, 360 h, post-emergence, assessed visually 15 DAA, read-out: Post-emergence herbicidal activity (percentage phytotoxicity) ALOMY POST
[10] = pre-emergence, 480 h, pre-emergence, assessed visually 20 DAA, read-out: Pre-emergence herbicidal activity (percentage phytotoxicity) ALOMY PRE

In the case of `Cc1ccc(-c2cc(C)c(C3C(=O)CC(CC(=O)NCc4cccc(C(F)(F)F)c4)C3=O)c(C)c2)nc1` (stereo not drawn) [Compound A158], the pest or weed control at 250 g/ha [1, 3] is reported as 90%, the pest or weed control at 250 g/ha [1, 4] is reported as 80% and the pest or weed control at 250 g/ha (Lolium perenne (LOLPE); [5]) is reported as 80%. It also gave a pest or weed control at 250 g/ha (Lolium perenne (LOLPE); [6]) of 60%, a pest or weed control at 250 g/ha (Avena fatua (AVEFA); [7]) of 70% and a pest or weed control at 250 g/ha (Avena fatua (AVEFA); [8]) of 20%. The pest or weed control at 250 g/ha [2, 9] was 70% and the pest or weed control at 250 g/ha [2, 10] was 20%.
`Cc1cc(C)c(C2C(=O)CC(CC(=O)N(C)CC(C)C)C2=O)c(C)c1` (stereo not drawn) [Compound A159] gave a pest or weed control at 250 g/ha [1, 3] of 80%, a pest or weed control at 250 g/ha [1, 4] of 90% and a pest or weed control at 250 g/ha (Lolium perenne (LOLPE); [5]) of 90%. It also gave a pest or weed control at 250 g/ha (Lolium perenne (LOLPE); [6]) of 90%, a pest or weed control at 250 g/ha (Avena fatua (AVEFA); [7]) of 50% and a pest or weed control at 250 g/ha (Avena fatua (AVEFA); [8]) of 20%. The pest or weed control at 250 g/ha [2, 9] was 70% and the pest or weed control at 250 g/ha [2, 10] was 60%.
`CCN(C)C(=O)CC1CC(=O)C(c2c(C)cc(C)cc2C)C1=O` (stereo not drawn) [Compound A160] showed a pest or weed control at 250 g/ha [1, 3] of 90%, a pest or weed control at 250 g/ha [1, 4] of 100% and a pest or weed control at 250 g/ha (Lolium perenne (LOLPE); [5]) of 100%. For the same compound, the pest or weed control at 250 g/ha (Lolium perenne (LOLPE); [6]) was 100%, the pest or weed control at 250 g/ha (Avena fatua (AVEFA); [7]) was 90% and the pest or weed control at 250 g/ha (Avena fatua (AVEFA); [8]) was 80%. It also gave a pest or weed control at 250 g/ha [2, 9] of 70% and a pest or weed control at 250 g/ha [2, 10] of 70%.
For `Cc1cc(C)c(C2C(=O)CC(CC(=O)N(C)C(C)C)C2=O)c(C)c1` (stereo not drawn) [Compound A161], the pest or weed control at 250 g/ha [1, 3] was 80%, the pest or weed control at 250 g/ha [1, 4] was 100% and the pest or weed control at 250 g/ha (Lolium perenne (LOLPE); [5]) was 90%. For the same compound, the pest or weed control at 250 g/ha (Lolium perenne (LOLPE); [6]) was 100%, the pest or weed control at 250 g/ha (Avena fatua (AVEFA); [7]) was 30% and the pest or weed control at 250 g/ha (Avena fatua (AVEFA); [8]) was 30%. It also gave a pest or weed control at 250 g/ha [2, 9] of 70% and a pest or weed control at 250 g/ha [2, 10] of 20%.
Work on `Cc1cc(C)c(C2C(=O)CC(CC(=O)N3CCCC3)C2=O)c(C)c1` (stereo not drawn) [Compound A162] yielded a pest or weed control at 250 g/ha [1, 3] of 90%, a pest or weed control at 250 g/ha [1, 4] of 100% and a pest or weed control at 250 g/ha (Lolium perenne (LOLPE); [5]) of 100%. For the same compound, the pest or weed control at 250 g/ha (Lolium perenne (LOLPE); [6]) was 100%, the pest or weed control at 250 g/ha (Avena fatua (AVEFA); [7]) was 90% and the pest or weed control at 250 g/ha (Avena fatua (AVEFA); [8]) was 70%. For the same compound, the pest or weed control at 250 g/ha [2, 9] was 90% and the pest or weed control at 250 g/ha [2, 10] was 70%.
With `Cc1cc(C)c(C2C(=O)CC(CC(=O)N3CCSCC3)C2=O)c(C)c1` (stereo not drawn) [Compound A163] the pest or weed control at 250 g/ha [1, 3] was 70%, the pest or weed control at 250 g/ha [1, 4] was 70% and the pest or weed control at 250 g/ha (Lolium perenne (LOLPE); [5]) was 60%. It also gave a pest or weed control at 250 g/ha (Lolium perenne (LOLPE); [6]) of 60%, a pest or weed control at 250 g/ha (Avena fatua (AVEFA); [7]) of 30% and a pest or weed control at 250 g/ha (Avena fatua (AVEFA); [8]) of 30%. It also gave a pest or weed control at 250 g/ha [2, 9] of 30% and a pest or weed control at 250 g/ha [2, 10] of 10%.
`Cc1cc(C)c(C2C(=O)CC(C(C)C(=O)NC(C)(C)C)C2=O)c(C)c1` (stereo not drawn) [Compound A164] was tested, and the pest or weed control at 250 g/ha [1, 3] was 70%, the pest or weed control at 250 g/ha [1, 4] was 70% and the pest or weed control at 250 g/ha (Lolium perenne (LOLPE); [5]) was 60%. The pest or weed control at 250 g/ha (Lolium perenne (LOLPE); [6]) was 60%, the pest or weed control at 250 g/ha (Avena fatua (AVEFA); [7]) was 70% and the pest or weed control at 250 g/ha (Avena fatua (AVEFA); [8]) was 10%. The pest or weed control at 250 g/ha [2, 9] was 70% and the pest or weed control at 250 g/ha [2, 10] was 70%.
`Cc1cc(C)c(C2C(=O)CC(C(C)C(=O)NCc3cccs3)C2=O)c(C)c1` (stereo not drawn) [Compound A165] showed a pest or weed control at 250 g/ha [1, 3] of 90%, a pest or weed control at 250 g/ha [1, 4] of 100% and a pest or weed control at 250 g/ha (Lolium perenne (LOLPE); [5]) of 80%. For the same compound, the pest or weed control at 250 g/ha (Lolium perenne (LOLPE); [6]) was 70%, the pest or weed control at 250 g/ha (Avena fatua (AVEFA); [7]) was 80% and the pest or weed control at 250 g/ha (Avena fatua (AVEFA); [8]) was 0%. It also gave a pest or weed control at 250 g/ha [2, 9] of 60% and a pest or weed control at 250 g/ha [2, 10] of 60%.
`Cc1cc(C)c(C2C(=O)CC(C(C)C(=O)NCc3cccc(C(F)(F)F)c3)C2=O)c(C)c1` (stereo not drawn) [Compound A166] gave a pest or weed control at 250 g/ha [1, 3] of 90%, a pest or weed control at 250 g/ha [1, 4] of 70% and a pest or weed control at 250 g/ha (Lolium perenne (LOLPE); [5]) of 70%. The pest or weed control at 250 g/ha (Lolium perenne (LOLPE); [6]) was 70%, the pest or weed control at 250 g/ha (Avena fatua (AVEFA); [7]) was 70% and the pest or weed control at 250 g/ha (Avena fatua (AVEFA); [8]) was 20%. It also gave a pest or weed control at 250 g/ha [2, 9] of 40% and a pest or weed control at 250 g/ha [2, 10] of 40%.
